Common to all, as to assay: NCI-60 SRB screen
What all share (assay type): cell-based

The subject of one experiment is A498. Particulars: Homo sapiens; A498, 10^–5 Molar; read-out: Percent growth inhibition. The method in brief:
(§1)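 Percent growth inhibition at 10^−5 M, 48 h. Sulforhodamine B read-out at […] following cold TCA fixation; Tz plates fixed when compound was added.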

For a further experiment, the system named is A549/ATCC. Particulars: Homo sapiens, 10^–5 Molar, read-out: Percent growth inhibition. The method in brief: (§2)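 Single-dose screen at 10^−5 M; cells grown in RPMI 1640 with 2 mM L-glutamine and FBS for 24 h, then exposed to compound for 48 h at 37 °C, 5% CO2. TCA-fixed, SRB-stained, absorbance read at […]; percentage growth inhibition calculated against time-zero and control wells.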

For a further experiment, the system named is CCRF-CEM. Particulars: Homo sapiens, 10^–5 Molar, read-out: Percent growth inhibition. In short, it runs like this:
as §2

A further experiment deals with K-562. The conditions noted are these: Homo sapiens, K562; K-562, 10^–5 Molar; read-out: Percent growth inhibition. In short, it runs like this: as §1
A further experiment concerns LOX IMVI. Particulars: Homo sapiens, 10^–5 Molar, read-out: Percent growth inhibition. In short, it runs like this:
as §1

The next experiment has as its system MDA-MB-231/ATCC. Particulars: Homo sapiens, 10^–5 Molar, read-out: Percent growth inhibition. In short, it runs like this: as §1
A further experiment has as its system MDA-MB-468. The conditions noted are these: Homo sapiens; MDA-MB-468, 10^–5 Molar; read-out: Percent growth inhibition. In short, it runs like this:
as §2

Another experiment relates to NCI/ADR-RES. The conditions noted are these: Homo sapiens, 10^–5 Molar, read-out: Percent growth inhibition. In short, it runs like this:
as §1

For another experiment, the system named is OVCAR-4. Particulars: Homo sapiens; OVCAR-4, 10^–5 Molar; read-out: Percent growth inhibition. The method in brief:
as §2

Another experiment concerns OVCAR-8. Particulars: Homo sapiens; OVCAR-8, 10^–5 Molar; read-out: Percent growth inhibition. In short, it runs like this:
as §2

The next experiment has as its system PC-3. The conditions noted are these: Homo sapiens; PC-3, 10^–5 Molar; read-out: Percent growth inhibition. In short, it runs like this: as §1
Another experiment deals with SF-268. Particulars: Homo sapiens; SF-268, 10^–5 Molar; read-out: Percent growth inhibition. The method in brief:
as §1

Another experiment relates to SK-MEL-28. Particulars: Homo sapiens; SK-MEL-28, 10^–5 Molar; read-out: Percent growth inhibition. The method in brief:
as §2

The test system of a further experiment is SNB-19. The conditions noted are these: Homo sapiens; SNB-19, 10^–5 Molar; read-out: Percent growth inhibition. In short, it runs like this:
as §1

The next experiment relates to SNB-75. Particulars: Homo sapiens; SNB-75, 10^–5 Molar; read-out: Percent growth inhibition. The method in brief: as §2
The subject of another experiment is melanoma SK-MEL-5. Particulars: Homo sapiens; SK-MEL-5, 10^–5 Molar; read-out: Percent growth inhibition. In short, it runs like this:
as §1

Another experiment deals with SK-OV-3. The conditions noted are these: Homo sapiens; SK-OV-3, 10^–5 Molar; read-out: Percent growth inhibition.
The subject of another experiment is HCT-15. Particulars: Homo sapiens; HCT-15, 10^–5 Molar; read-out: Percent growth inhibition. The method in brief: as §2
In another experiment the test system is HOP-62. The conditions noted are these: Homo sapiens; HOP-62, 10^–5 Molar; read-out: Percent growth inhibition. In short, it runs like this: as §2
The test system of a further experiment is IGROV1. The conditions noted are these: Homo sapiens, IGROV-1; IGROV1, 10^–5 Molar; read-out: Percent growth inhibition. In short, it runs like this: as §2
In another experiment the test system is NCI-H226. Particulars: Homo sapiens; NCI-H226, 10^–5 Molar; read-out: Percent growth inhibition. In short, it runs like this: as §1
A further experiment deals with RXF 393. Particulars: Homo sapiens, 48 h; RXF 393, 10^–5 Molar; read-out: Percent growth inhibition. The method in brief:
as §2

Another experiment relates to SN12C. Particulars: Homo sapiens, 10^–5 Molar, read-out: Percent growth inhibition. The method in brief: as §1
A further experiment deals with leukemia SR. Particulars: Homo sapiens; SR, 10^–5 Molar; read-out: Percent growth inhibition. The method in brief:
as §2

A further experiment has as its system EKVX. Particulars: Homo sapiens, 10^–5 Molar, read-out: Percent growth inhibition. In short, it runs like this: as §2

With `CCn1cc(C(=O)O)c(=O)c2cc(F)c(N3CCN(CC(=O)Nc4ccccc4)C(C)C3)c(F)c21` (stereo not drawn) [Compound 5a, 1-Ethyl-6,8-difluoro-7-(3-methyl-4-(2-oxo-2-(phenylamino)ethyl)piperazin-1-yl)-4-oxo-1,4-dihydroquinoline-3-carboxylic acid], the inhibition (in general, the relative decrease from the control value, in per cent) at 10 µM worked out at 26.6% with A498; 2.07% in the experiment on A549/ATCC; 3.25% in the experiment with CCRF-CEM; 12.9% with K-562; 11.5% in the experiment on LOX IMVI; 12.9% in the experiment on MDA-MB-231/ATCC. Further, the inhibition at 10 µM in the experiment on MDA-MB-468 was 7.38%; in the experiment on NCI/ADR-RES it was 3.34%; with OVCAR-4 it was 17.6%; in the experiment on OVCAR-8, 1.7%; in the experiment on PC-3, 6.83%; with SF-268, 6.33%. For the same compound, the inhibition at 10 µM was found to be 3% with SK-MEL-28; 0.85% in the experiment with SNB-19; 13.9% with SNB-75; 0.76% with melanoma SK-MEL-5; 9.27% with SK-OV-3.
As for `CCn1cc(C(=O)O)c(=O)c2cc(F)c(N3CCN(C(=O)c4ccc(Br)cc4)C(C)C3)c(F)c21` (stereo not drawn) [Compound 7b, 7-(4-(4-Bromobenzoyl)-3-methylpiperazin-1-yl)-1-ethyl-6,8-difluoro-4-oxo-1,4-dihydroquinoline-3-carboxylic acid], the inhibition at 10 µM with A498 came to 13.8%; with A549/ATCC, 1.07%; in the experiment with HCT-15 it was 1.3%; in the experiment with HOP-62 it was 5.56%; in the experiment on IGROV1 it was 5.97%; in the experiment with K-562 it was 0.24%. The inhibition at 10 µM in the experiment with MDA-MB-231/ATCC worked out at 13.3%; with MDA-MB-468, 3.31%; in the experiment on NCI-H226, 1.95%; in the experiment with NCI/ADR-RES it was 9.07%; in the experiment with OVCAR-4, 16.9%; with PC-3 it was 5.63%. For the same compound, the inhibition at 10 µM turned out to be 6.35% with RXF 393; 6.79% with SF-268; 1.45% in the experiment on SN12C; 4.45% in the experiment on SNB-19; 2.37% with SNB-75; 1.41% in the experiment on leukemia SR. Also, the figures for the inhibition at 10 µM in the experiment on melanoma SK-MEL-5 and in the experiment on SK-OV-3 were 1.22% and 1.83%, respectively.
With `CCn1cc(C(=O)O)c(=O)c2cc(F)c(N3CCN(CC(=O)Nc4ccc(Cl)cc4)C(C)C3)c(F)c21` (stereo not drawn) [Compound 5b, 7-(4-(2-((4-Chlorophenyl)amino)-2-oxoethyl)-3-methylpiperazin-1-yl)-1-ethyl-6,8-difluoro-4-oxo-1,4-dihydroquinoline-3-carboxylic acid], the inhibition at 10 µM in the experiment with A498 came to 27.1%; with A549/ATCC, 6.12%; in the experiment on CCRF-CEM it was 2.48%; in the experiment on EKVX it was 3.04%; in the experiment with HCT-15, 1.39%; in the experiment with IGROV1, 0.82%. The inhibition at 10 µM in the experiment with K-562 amounted to 14.2%; in the experiment with LOX IMVI it was 9.13%; in the experiment on MDA-MB-231/ATCC it was 15.7%; in the experiment with MDA-MB-468, 7.4%; in the experiment on NCI-H226, 3.83%; in the experiment on NCI/ADR-RES, 8.06%. Further, the inhibition at 10 µM in the experiment on OVCAR-4 was 22.2%; in the experiment on OVCAR-8 it was 7.15%; with PC-3, 12.1%; in the experiment with RXF 393, 0.61%; with SF-268, 6.49%; in the experiment with SK-MEL-28 it was 6.48%. For the same compound, the inhibition at 10 µM in the experiment on SN12C turned out to be 2.23%; in the experiment with SNB-19, 1.6%; in the experiment with SNB-75 it was 17.7%; with melanoma SK-MEL-5 it was 16.1%; in the experiment with SK-OV-3, 9.6%.
As for `CCn1cc(C(=O)O)c(=O)c2cc(F)c(N3CCN(C(=O)c4ccc(Cl)cc4)C(C)C3)c(F)c21` (stereo not drawn) [Compound 7c, 7-(4-(4-Chlorobenzoyl)-3-methylpiperazin-1-yl)-1-ethyl-6,8-difluoro-4-oxo-1,4-dihydroquinoline-3-carboxylic acid], the inhibition at 10 µM is 19.2% in the experiment with A498; 1.75% with A549/ATCC; 2.13% with HOP-62; 1.62% in the experiment on IGROV1; 1.62% with K-562; 4% with LOX IMVI. Further, the inhibition at 10 µM stood at 14.3% in the experiment with MDA-MB-231/ATCC; 3.92% in the experiment on MDA-MB-468; 7.33% in the experiment with NCI-H226; 13.8% with NCI/ADR-RES; 18.9% in the experiment on OVCAR-4; 9.65% in the experiment with PC-3. For the same compound, the inhibition at 10 µM in the experiment on RXF 393 came out at 0.35%; in the experiment with SF-268 it was 7.02%; with SK-MEL-28 it was 2.92%; with SN12C it was 3.15%; in the experiment on SNB-19, 6.42%; with SNB-75, 9.12%. In addition, the inhibition at 10 µM in the experiment on leukemia SR worked out at 8.55%; in the experiment on melanoma SK-MEL-5, 2.21%; in the experiment with SK-OV-3 it was 2.14%.
Regarding `CCn1cc(C(=O)NN=Cc2cccc(F)c2)c(=O)c2cc(F)c(N3CCNC(C)C3)c(F)c21` (stereo not drawn) [Compound 3b, 1-Ethyl-6,8-difluoro-N′-(3-fluorobenzylidene)-7-(3-methylpiperazin-1-yl)-4-oxo-1,4-dihydroquinoline-3-carbohydrazide], the inhibition at 10 µM was 0.84% with A498; 167% with A549/ATCC; 147% in the experiment with CCRF-CEM; 49.2% with EKVX; 182% in the experiment with HCT-15; 13.5% with HOP-62. The inhibition at 10 µM in the experiment on IGROV1 was 30.6%; in the experiment with K-562, 152%; with LOX IMVI it was 191%; with MDA-MB-231/ATCC, 150%; in the experiment on MDA-MB-468 it was 28.4%; in the experiment with NCI-H226, 2.9%. In addition, the inhibition at 10 µM with NCI/ADR-RES turned out to be 21.6%; in the experiment on OVCAR-4, 76.2%; with OVCAR-8, 105%; in the experiment on PC-3 it was 30.4%; in the experiment on RXF 393 it was 122%; with SF-268, 60.6%. Moreover, the inhibition at 10 µM came to 164% in the experiment on SK-MEL-28; 104% in the experiment on SN12C; 159% in the experiment with SNB-19; 9.9% in the experiment on SNB-75; 129% in the experiment with leukemia SR; 47.4% in the experiment on melanoma SK-MEL-5.

The values above are taken from article PMC10940605, “Design, synthesis and in vitro anticancer activity of some new lomefloxacin derivatives” (Scientific Reports, 2024).
